The record followed here is patent US20260272936A1, “TREATMENT OF CANCER WITH A PARG INHIBITOR” (858 Therapeutics, Inc., priority 2023, published 2026).

Structures are written as SMILES. Where two headings read alike, the source gives them in different places.

For one data set, the system named is HCC1806 xenograft. In words: HCC1806 triple negative breast cancer CDX, combination with camonsertib (RP-3500). On the set-up: species or system Athymic nude mice. To be noted: mouse, in vivo. As to the method:
HCC1806 cells were cultured in RPMI medium containing 10% FBS (Thermo Fisher Scientific Cat #A31605-02) and penicillin+streptomycin (Thermo Fisher Scientific Cat #15070-063). The CDX model was established by subcutaneous inoculation of 1×10^6 HCC1806 cells/mouse into the right flank of Athymic nude mice (The Jackson Laboratory, Bar Harbor, ME, USA, Cat #002019). […] Compound 1 was administered to mice at 200 mg/kg to mice orally once daily from Monday through Friday throughout the treatment period and camonsertib (RP-3500) was administered at 15 mg/kg orally once daily from Monday through Wednesday throughout the treatment period (Table 11).
Tumor volumes and body weights were measured twice weekly. […] Statistical analysis of end-of-study tumor volumes relative to the vehicle group tumor volume was performed using Kruskal-Wallis Anova test with Dunn's multiple comparisons test.

For a further data set, the system named is OVCAR3 cells. The data set is described as follows: 6-day growth assay, Compound 1 in combination with camonsertib. It counts as cell-based. To be noted: Homo sapiens, OVCAR-3, 144 h, read-out: Compound 1 IC50, 6-Day Nuclei Count.
The next data set deals with GP2D cells. The data set is described as follows: 6-day growth assay, Compound 1 in combination with exatecan. It counts as cell-based, human. As for the experimental part:
The activity of Compound 1 in combination with exatecan was evaluated in the HCC1954, HCC1806, and GP2D cancer cell lines in a 6-day growth assay. HCC1954 (Cat #CRL-2338) and HCC1806 (Cat #CRL-2335) cells were obtained from American Type Culture Collection (ATCC) and maintained in ATCC modified RPMI (Cat #30-2001)+10% FBS (Cat #A3160502)+1% penicillin/streptomycin (Cat #15140-122) in a humidified incubator at 37° C., 5% CO2. GP2D cells were obtained from ECACC (Cat #95090714-1VL) and maintained in DMEM+GlutaMAX (Cat #10566-016)+10% FBS (Cat #A3160502)+1% penicillin/streptomycin (Cat #15140-122). Cells were seeded at 2,500 cells/well (HCC1954 and GP2D) or 2,000 cells/well (HCC1806) in 100 μL of growth medium in a 96-well plate (Corning costar Cat #3603) and allowed to adhere overnight at 37° C. with 5% CO2. The next day, serial dilutions of Compound 1 and exatecan were prepared and added to the corresponding wells of a 96-well plate. A solution of 0.1% DMSO in medium was used as the negative control. Cells were incubated with compound for 6 days at 37° C. with 5% CO2, then fixed, stained, and counted as described in Example 3. Concentration response-curves and IC50 values were generated by non-linear regression analysis using a 4-parameter variable slope fit in GraphPad Prism 10 software. Potential synergy between Compound 1 and exatecan was assessed using Zero interaction potency (ZIP), Highest Single Agent (HSA), Bliss, and Loewe synergy models to find the most synergistic area score, where scores >10 indicate that the interaction between the two drugs is likely to be synergistic (Ianevski et al. 2020).

The test system of data set [1] is γH2AX in HCC1428 tumor tissue. The data set is described as follows: γH2AX immunohistochemistry of HCC1428 xenograft tumor tissue (Study 2). It counts as in vivo, BALB/c nude mice. To be noted: vehicle 2.4%. As to the method:
The mice in the 50 mg/kg BID group were dosed every day whereas the mice in the […] were dosed for the first 5 days of each 7-day cycle, such that the total weekly dose was the same between these two groups. At the end of the study, tumor tissue was collected for the vehicle, 50 mg/kg BID, and 30, 50 and 100 mg/kg QD dose groups and formalin-fixed and paraffin embedded (FFPE) for γH2AX immunohistochemistry. γH2AX expression in FFPE tumor tissue was evaluated by staining and was performed using immunohistochemistry and validated antibody conditions at Histowiz (Long Island City, NY, USA). The γH2AX IHC images were then quantified in-house using QuPath software. The total number of nuclei objects per tumor section based on hematoxylin counter-staining (blue) were segmented using a Stardist algorithm and the number of γH2AX positive DAB (3,3′ Diaminobenzidine) stained cells (brown) quantified using object classification with a pre-trained random forest model based on DAB staining parameters including intensity and standard deviation.
% γH2AX positive=(#γH2AX positive nuclei/#total nuclei)*100
Statistical analysis of the γH2AX staining was conducted using Ordinary one-way ANOVA with Dunnett's multiple comparisons test and differences considered significant at a calculated probability p≤0.05.

Usually IC50 stands for the point on the concentration scale where inhibition reaches its midpoint. Take `[2H]C([2H])(c1cnn(C)c1)N1C(=O)c2cc(S(=O)(=O)NC3(C)CC3)ccc2N2C1=NC[C@H]2C` [Compound 1, (R)-1-methyl-4-((1-methyl-1H-pyrazol-4-yl)methyl-d2)-N-(1-methylcyclopropyl)-5-oxo-1,2,4,5-tetrahydroimidazo[1,2-a]quinazoline-7-sulfonamide]: in the data set on HCC1806 xenograft, the “body weight change during the treatment period” value is on record as “body weight gains”. Also, the half-maximal inhibitory concentration (IC50) in the data set on OVCAR3 cells (camonsertib 0.032 nM) was 39 µM; with OVCAR3 cells (camonsertib 0.32 nM) it was 44 µM; in the data set on OVCAR3 cells (camonsertib 3.2 nM), 29 µM; in the data set with OVCAR3 cells (camonsertib 10 nM), 12 µM; with OVCAR3 cells (camonsertib 32 nM) it was 2 µM; with OVCAR3 cells (camonsertib 100 nM) it was 0.27 µM. Moreover, the IC50 in the data set on GP2D cells (Homo sapiens, GP2d, exatecan 0.03 nM) amounted to 6 µM; in the data set with GP2D cells (Homo sapiens, GP2d, exatecan 0.1 nM), 5.1 µM; in the data set on GP2D cells (Homo sapiens, GP2d, exatecan 0.3 nM) it was 3.1 µM; in the data set with GP2D cells (Homo sapiens, GP2d, exatecan 1 nM) it was 3.1 µM; in the data set on GP2D cells (Homo sapiens, GP2d, exatecan 3 nM), 8.1 µM; in the data set with GP2D cells (Homo sapiens, GP2d, exatecan 30 nM) it was 5.4 µM. The figures for the IC50 in the data set with GP2D cells (exatecan 0.03 nM) and in the data set with GP2D cells (exatecan 1 nM) were 6.3 µM and 3.3 µM, respectively. In addition, the “% γH2AX positive cells in tumor tissue” value is on record as 3.7% +/− 0.4 in data set [1] (30 mg/kg QD), 6.8% +/− 0.4 in data set [1] (50 mg/kg BID), 4.2% +/− 0.3 in data set [1] (50 mg/kg QD) and 5.9% +/− 0.5 in data set [1] (100 mg/kg QD).
